Values of other authors, collected in patent publication US20040185170A1, “Method for coating drug-containing particles and formulations and dosage units formed therefrom” (priority 2003, published 2004).

Details: coating material; from CRC Handbook of Chemistry and Physics, 63rd Edition

Q: For `CCCCCCCCCCCCCCCC(=O)OC` [Methyl palmitate], which “ΔHvap (heat of vaporization)” value is on record?
A: Its value is 17,003.5 g cal mol^−1.

Q: Which “ΔHvap (heat of vaporization)” value does the source give for `CCCCCCCCCC(=O)O` [Capric acid] here?
A: Its value is 19,372.6 g cal mol^−1.

Q: Which “ΔHvap (heat of vaporization)” value does the source give for `CCCCCCCC/C=C\CCCCCCCC(=O)O` [Oleic acid] here?
A: The value was 20,326.7 g cal mol^−1.

Q: With `CCCCCCCCCCCC(=O)OC` [Methyl laurate] as the compound, how does the “ΔHvap (heat of vaporization)” value read?
A: The value was 14,853.5 g cal mol^−1.

Q: For `CCCCCCCCCCCCCCCC(=O)O` [Palmitic acid], which “ΔHvap (heat of vaporization)” value is on record?
A: The value was 17,603.6 g cal mol^−1.

Q: With `CCCCCCCCCCCCCC(=O)OC` [Methyl myristate] as the compound, how does the “ΔHvap (heat of vaporization)” value read?
A: The value was 16,051.0 g cal mol^−1.

Q: With `CCCCCCCCCCCCC(=O)O` [Tridecanoic acid] as the compound, how does the “ΔHvap (heat of vaporization)” value read?
A: Its value is 19,214.8 g cal mol^−1.

Q: With `CCCCCCCCCCCCCCCCCC(=O)O` [Stearic acid] as the compound, how does the “ΔHvap (heat of vaporization)” value read?
A: The value was 19,306.6 g cal mol^−1.

Q: With `CCCCCCCCCCCC(=O)O` [Lauric acid] as the compound, how does the “ΔHvap (heat of vaporization)” value read?
A: The value was 16,585.3 g cal mol^−1.

Q: With `CCCCCCCCCCCCCC(=O)O` [Myristic acid] as the compound, how does the “ΔHvap (heat of vaporization)” value read?
A: Its value is 18,380.1 g cal mol^−1.

Q: With `CCCCCCCCCCCCCCCCO` [Cetyl alcohol] as the compound, how does the “ΔHvap (heat of vaporization)” value read?
A: The value was 14,483.4 g cal mol^−1.

Details: normal atmospheric pressure

Q: For `CCCCCCCCCCCCCCCCCC(=O)O` [Stearic acid], which “temperature at which it slowly volatilizes” value is on record?
A: The value was 90-100 °C.
